The source of these data is article PMC8063026 (Frontiers in Pharmacology, 2021).

Read-outs that look alike come from different tables or passages of the source.

A short description of series [1]: LC-MS/MS detection of mephedrone metabolites in a human urine sample. It is filed as in vivo. Further details: key to Detected in urine samples: detected (+); not detected (−). The conditions noted are these: for detection in human urine sample: achiral LC-MS/MS, after enzymatic workup. The source says: The biological specimen, human urine, was provided by the Department of Chemical Analytics, Seibersdorf Laboratories GmbH. The sample was taken from a subject postmortem in a fatal case of drug overdose. […] Given this fact, we assumed that also the metabolites would be detectable in sufficient quantity. To evaluate the presence of any metabolites whatsoever in the urine sample we designed an achiral separation protocol for liquid chromatography and we coupled it with triple quadrupole mass spectrometer. The advantage of LC-MS/MS system is that even if two substances have the same retention time, they can still be differentiated by their fragmentation pattern. More in details, the samples for urine analysis were analyzed using a CTC HTS PAL autosampler (CTC Analytics) and a Thermo Surveyor LC system (Thermo) interfaced to a TSQ Quantum Discovery Max triple quadrupole mass spectrometer (Thermo). A C18 security guard cartridge (4 × 2 mm) (Phenomenex) was used for sample clean-up and the analytical HPLC column was a Kinetex 1.7 μm C18 100Å 150 × 2.1 mm (Phenomenex) and Cortecs T3, 2.7 μm C18 120Å 100 × 2.1 mm (Waters). Column selection was performed by a Maylab Mistraswitch column selector (Maylab Analytical Instruments). The solvents were 0.2% formic acid in water (A) and acetonitrile (B). The temperature of the analytical column was maintained at 40°C. The mass spectrometer was equipped with heated electrospray ionization (ESI) source and was operated in positive ionization mode with a spray voltage set at 4500V. The capillary temperature was adjusted to 320°C. The sheath and auxiliary gas (nitrogen) flow rate was 25 and 10 arbitrary units, respectively. The system was operated in selected […] (srm) mode with argon as the collision gas at a pressure of 1.5 mTorr. For the achiral separation, stem solutions were prepared by weighing the reference substances in volumetric flasks and filling them up with MeOH (99.9%; HPLC grade), creating average concentration of 1 mg/ml. Then dilution solutions were prepared as follows: 10 μL of stem solution was filled up to 5 ml MeOH, creating dilution […]. Samples were prepared from dilution solutions by taking out 25 μL and mixing it together with 25 μL of ISP, 50 μL ISS and filled up to 1 ml with Milli-Q water. The final sample solvent was water/MeOH 9/1. For the enzymatic workup, phosphate buffer (1 ml, 0.8M, pH = 7), β-glucuronidase/arylsulfatase (25 μL) and β-glucuronidase (25 μL) were added to the solutions. The solutions were heated at 50°C during 1 h upon which EtOAc (7 ml) was added. The solution was put into shaker for 10min, following centrifugation for 5 min. The organic phase was separated and evaporated into dryness in stream of pressurized nitrogen. The residue was taken up in 150 μL MQ-water/MeOH 9/1 + 0.4% formic acid, heated at 50°C for 5 min and subjected to LC-MS analysis.
If on one hand the synthesis of putative metabolites allows the establishment of structure activity relationships, on the other hand, it provides pure material to evaluate their presence in human urine samples and determine their pharmacological relevance. To determine the presence of any metabolites in the urine sample, we have designed an achiral separation protocol and coupled the liquid chromatography with triple quadrupole mass spectrometer (LCMS/MS). With the LCMS/MS system two substances with the same retention time, can still be differentiated by their fragmentation pattern. Since metabolites carrying a primary alcohol functionality can form glucuronide and sulfate conjugates, we performed an enzymatic workup of the urine sample in order to cleave them. Apart from the parental drug, we detected 4-OH-MMC and 4-MC (nor-meph) which we have both already identified in our previous publication ([Mayer et al., 2019]), and the two previously uncharacterized metabolites 4-COOH-MC and dihydro-4-MC (Figure 6). […]

For series [2] the following is noted: cited from earlier work.
The conditions of series [3]: ref Meyer et al., 2010; cited from earlier work.
Series [4] concerns the target T1, DAT (Homo sapiens, UniProt Q01959).
T1 construct: expressed in transfected cells
Nature of the series: cell-based.

The target of the next series is T2, human NET (Homo sapiens, UniProt P23975).
T2 construct: expressed in transfected cells
T2 sequence (P23975 whole entry): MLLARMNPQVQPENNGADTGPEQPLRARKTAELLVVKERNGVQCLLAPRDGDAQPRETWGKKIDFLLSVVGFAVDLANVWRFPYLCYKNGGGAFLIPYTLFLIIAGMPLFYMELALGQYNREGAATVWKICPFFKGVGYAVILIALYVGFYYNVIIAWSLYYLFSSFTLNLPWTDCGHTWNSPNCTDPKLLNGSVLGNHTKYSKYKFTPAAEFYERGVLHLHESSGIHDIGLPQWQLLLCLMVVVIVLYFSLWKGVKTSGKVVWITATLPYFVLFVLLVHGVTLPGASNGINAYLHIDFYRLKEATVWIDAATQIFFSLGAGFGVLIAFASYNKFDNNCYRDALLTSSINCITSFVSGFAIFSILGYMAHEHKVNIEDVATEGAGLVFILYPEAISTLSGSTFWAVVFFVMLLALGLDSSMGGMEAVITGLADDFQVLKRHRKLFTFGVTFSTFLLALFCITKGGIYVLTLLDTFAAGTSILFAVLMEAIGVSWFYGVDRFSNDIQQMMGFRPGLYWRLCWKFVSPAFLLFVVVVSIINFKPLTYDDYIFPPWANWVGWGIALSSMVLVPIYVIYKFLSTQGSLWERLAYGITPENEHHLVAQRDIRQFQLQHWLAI
Nature of the series: cell-based.

The target in series [5] is T1, DAT. Nature of the series: Transporter electrophysiology (whole cell patch clamp), HEK293 cells stably expressing DAT. It is filed as cell-based. The conditions noted are these: compound applied at 30 µM, -60 mV. The protocol:
(§1) Human embryonic kidney 293 cells (HEK293 cells) were cultivated in Dulbecco’s Modified Eagle Medium (DMEM), containing 10% heat-in- activated fetal calf serum (FCS), streptomycin (100 μg x 100 ml−1) and penicillin (100 U × 100 ml−1). Geneticin (50 μg x mL−1) was added to select HEK293 cells stably expressing the human isoforms of DAT, NET and SERT as described earlier ([Mayer et al., 2016a]). Cell lines were maintained in a sub-confluent state in humidified atmosphere (37°C, 5% CO2). For uptake inhibition experiments cells expressing the desired transporter were seeded the days before the experiment (40,000 cells per well) or two days before the experiments (20,000 cells per well) onto poly-D-lysine (PDL) coated 96-well plates 24 h prior to the experiment. In the case of transporter-electrophysiology cells were cultivated in 10 cm dishes and 24 h before the experiments they were detached, and seeded at low density onto PDL-coated 3 cm dishes.
(§2) Transporter electrophysiology was conducted by the means of whole cell patch clamp in HEK293 cells stably expressing DAT or SERT. Substrate-induced currents were recorded under voltage clamp (−60 mV). Cells were continuously superfused with a physiological external solution that contains 140 mM NaCl, 2.5 mM CaCl2, 2 mM MgCl2, 20 mM glucose and 10 mM HEPES, pH = 7.4. The pipette solution contained 133 mM potassium gluconate, 6 mM NaCl, 1 mM CaCl2, 0.7 mM MgCl2, 10 mM HEPES, 10 mM EGTA, pH = 7.2. Currents elicited by mephedrone 30 μM, were measured at room temperature (20–24°C) using an […] amplifier and pClamp 11.2 software (MDS Analytical Technologies). All the solutions perfused onto the cell were applied using a DAD-12 superfusion system and a 8-tube perfusion manifold (ALA Scientific Instruments), which allowed for rapid solution exchange. Current traces were filtered at 1 kHz and digitized at 10 kHz using a Digidata 1,550 (MDS Analytical Technologies). […] For the analysis, passive holding currents were subtracted, and the traces were filtered using a 100-Hz digital Gaussian low-pass filter.
(Patch clamp records ionic current or voltage across a cell membrane.)

The target of series [6] is T3, SERT (Homo sapiens, UniProt P31645).
T3 construct: expressed in transfected cells
T3 sequence (P31645 whole entry): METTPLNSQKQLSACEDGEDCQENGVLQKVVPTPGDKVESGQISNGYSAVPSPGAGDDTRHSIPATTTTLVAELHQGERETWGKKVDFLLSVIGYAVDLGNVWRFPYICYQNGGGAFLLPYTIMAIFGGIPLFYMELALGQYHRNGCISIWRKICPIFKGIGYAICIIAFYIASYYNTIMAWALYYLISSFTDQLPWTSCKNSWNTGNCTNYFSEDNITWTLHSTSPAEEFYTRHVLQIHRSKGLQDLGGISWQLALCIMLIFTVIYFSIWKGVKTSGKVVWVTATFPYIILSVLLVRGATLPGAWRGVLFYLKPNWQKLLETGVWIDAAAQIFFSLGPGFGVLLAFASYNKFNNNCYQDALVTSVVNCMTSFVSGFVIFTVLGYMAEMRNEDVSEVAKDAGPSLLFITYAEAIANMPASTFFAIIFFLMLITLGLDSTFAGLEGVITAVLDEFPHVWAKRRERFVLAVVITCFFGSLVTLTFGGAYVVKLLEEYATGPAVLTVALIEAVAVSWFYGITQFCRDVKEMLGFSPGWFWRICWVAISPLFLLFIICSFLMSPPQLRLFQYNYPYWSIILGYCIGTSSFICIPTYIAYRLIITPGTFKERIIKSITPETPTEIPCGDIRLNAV
Nature of the series: Transporter electrophysiology (whole cell patch clamp), HEK293 cells stably expressing SERT. The format is cell-based. The conditions noted are these: compound applied at 30 µM, -60 mV. The protocol:
as §1, §2

In series [7] the target is T1, DAT. The conditions noted are these: read-out: IC50 (µM) DAT; mean (95% confidence interval); ref Niello et al. (2019); cited from earlier work.
The target of series [8] is T3, SERT. The conditions noted are these: cited from earlier work.
The conditions of series [9]: ref Olesti et al., 2019, cited from earlier work.
The target of series [10] is T3, SERT. Nature of the series: Uptake-inhibition of [3H]5-HT in HEK293 cells stably expressing human SERT. The format is cell-based. The settings on record: pIC50 SERT, QSAR data matrix, from IC50 SERT.
Series [11] relates to SERT. Also on record: method as in Gregg et al., 2015; Mayer et al., 2016b; Mayer et al., 2019. The conditions noted are these: ref Gregg et al., 2015, Mayer et al., 2016b, 2019; cited from earlier work.

T1 sequence (Q01959 whole entry): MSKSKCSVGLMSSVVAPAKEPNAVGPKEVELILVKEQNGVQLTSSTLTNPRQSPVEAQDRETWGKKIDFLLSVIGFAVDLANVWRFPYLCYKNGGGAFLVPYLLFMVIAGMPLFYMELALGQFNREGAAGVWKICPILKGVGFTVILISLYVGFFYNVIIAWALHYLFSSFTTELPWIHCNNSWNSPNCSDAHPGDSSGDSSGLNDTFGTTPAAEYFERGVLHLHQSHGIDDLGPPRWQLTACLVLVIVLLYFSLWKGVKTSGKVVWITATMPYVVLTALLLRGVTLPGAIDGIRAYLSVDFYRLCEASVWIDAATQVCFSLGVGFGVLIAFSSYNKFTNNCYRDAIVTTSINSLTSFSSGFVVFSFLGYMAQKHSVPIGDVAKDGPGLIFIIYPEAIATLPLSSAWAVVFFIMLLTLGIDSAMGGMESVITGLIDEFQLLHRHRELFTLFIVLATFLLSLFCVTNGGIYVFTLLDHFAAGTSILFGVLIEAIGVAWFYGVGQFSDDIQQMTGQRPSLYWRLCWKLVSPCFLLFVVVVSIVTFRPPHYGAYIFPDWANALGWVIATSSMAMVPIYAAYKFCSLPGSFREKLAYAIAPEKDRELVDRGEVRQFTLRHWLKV

Regarding `CC(N)C(=O)c1ccc(CO)cc1` (stereo not shown) [4-OH-MC], the “detection in human urine sample” value in series [1] was “not found”. Further, in series [2] (minor metabolites in rats, ref Linhart et al., 2016), the relative abundance is recorded as 0.1–0.2%. Further, the “detection in rat urine” value in [2] (ref Meyer et al., 2010) was “could be detected in rat urine”. Besides, the “detection in human urine” value in series [3] was “not in human urine”.

For `CNC(C)C(=O)c1ccc(C)cc1` (stereo not shown) [Mephedrone, reference compound], the “Selectivity ratio DAT/SERT” value at DAT [4] worked out at 2.90. Also, the “Selectivity ratio NET/DAT” value at human NET is reported as 1.09. For the same compound, the DAT-mediated current entry on DAT [5] was “elicited both DAT- and SERT mediated currents”. For the same compound, the SERT-mediated current entry at SERT [6] was “elicited both DAT- and SERT mediated currents”. In addition, in series [1] (human urine, mephedrone user, only syn- and anti-configurations could be separated), the “Detected in urine samples” value was “+”. Further, the IC50 on DAT [7] is 3.01 µM; on SERT [8] (read-out: IC50 (µM) SERT, mean (95% confidence interval), ref Niello et al. (2019)) it was 8.74 µM. Besides, the plasma concentrations in series [9] (conversion of ng h/ml range) is 0.090 to 1.25 µM·h.

As to `CN[C@@H](C)C(=O)c1ccc(C)cc1` [S-mephedrone, reference compound], the IC50 on DAT [4] (QSAR data matrix, from IC50 DAT, read-out: pIC50 DAT (converted)) was 0.776 µM; on human NET, 2.75 µM; against SERT [10], 10.7 µM; at SERT [8] (read-out: IC50 SERT, QSAR data matrix, unit inferred, compounds not tested in this paper, source not given, presumably ref Mayer et al., 2019), 10.7 µM. Besides, the “potency as releaser of SERT, times higher than R-mephedrone” value in the series on SERT [11] is recorded as 40 times.

For the compound `CNC(C)C(O)c1ccc(C)cc1` (stereo not shown) [dihydro-4-MMC, dihydro-mephedrone, reference compound], in series [1], the “detection in human urine sample” value is recorded as “did not find”. For the same compound, the “plasma level as % of the plasma mephedrone” value in [9] was 10%.
